Reference: US20250353842A1, “BICYCLIC AMINE CDK12 INHIBITORS” (Incyte Corporation, priority 2022, published 2025)

Target: CDK12 complexed with Cyclin K (Homo sapiens (Human), UniProt Q9NYV4)
Experiment: CDK enzymatic assay (HTRF, LANCE Ultra kinase assay)
Type: biochemical
Conditions: 60 minutes pre-incubation, 1 mM ATP
Description: The following activity of the CDK enzymes in complex with their respective cyclins we assayed: CDK1 complexed with Cyclin B1; CDK2 complexed with Cyclin E1; CDK4 complexed with Cyclin D1; CDK6 complexed with Cyclin D1; CDK6 complexed with Cyclin D3; CDK9 complexed with Cyclin T1; CDK7 complexed with Cyclin H/MAT1; CDK2 complexed with Cyclin A2; CDK5 complexed with p35; CDK12 complexed with Cyclin K; CDK13 complexed with Cyclin K. These in vitro enzyme activity are assayed using homogeneous time-resolved energy transfer (HTRF), which measures phosphorylation of a peptide substrate. The LANCE® Ultra kinase assay (PerkinElmer) uses a ULight™-labeled EIF4E-binding protein 1 (THR37/46) peptide (DYSTTPGGTLFSTTPGTRI) (SEQ ID NO: 1) substrate and a Europium-labeled anti-phospho-4E-BP1 antibody (CDK2, CDK1, CDK4, CDK6, CDK9, CDK12, CDK13) or ULight™-labeled Myelin Basic Protein peptide (VTPRTPPP) (SEQ ID NO: 2) substrate and a Europium-labeled anti-phospho-MBP antibody (CDK7). Each CDK enzyme activity assays utilized human CDK co-expressed as N-terminal GST-tagged protein with its full length cyclin partner using a baculovirus expression system.
Enzyme was pre-incubated with compounds for 30 minutes (CDK1,2,4,6,9) or 60 minutes (CDK7, CDK12, CDK13) prior to addition of ATP and Ulight-peptide (1 mM and 50 nM final, respectively), in assay buffer containing 50 mM HEPES pH 7.5, 1 mM EGTA, 10 mM MgCl2, 2 mM DTT, 0.05 mg/mL BSA, and 0.01% Tween 20.
The reaction was then incubated for 60-90 minutes at room temperature. The reactions were stopped by the addition of EDTA and Europium labeled antibody, for a final concentration of 15 mM and 1.0-1.5 nM, respectively. HTRF signals were read after 15-120 minutes. A ratio of fluorescence transferred to the labeled substrate (665 nm) relative to fluorescence of the Europium donor (620 nm) represents the extent of phosphorylation. Ratios for treated wells were normalized to DMSO only (100% activity) and no enzyme (0% activity) controls. Normalized data was analyzed using a three or four parameter dose response curve to determine IC50 for each compound and are shown in Table A. Control reference inhibitors were included on each plate.

CDK12 complexed with Cyclin K, sequence (Q9NYV4 whole entry): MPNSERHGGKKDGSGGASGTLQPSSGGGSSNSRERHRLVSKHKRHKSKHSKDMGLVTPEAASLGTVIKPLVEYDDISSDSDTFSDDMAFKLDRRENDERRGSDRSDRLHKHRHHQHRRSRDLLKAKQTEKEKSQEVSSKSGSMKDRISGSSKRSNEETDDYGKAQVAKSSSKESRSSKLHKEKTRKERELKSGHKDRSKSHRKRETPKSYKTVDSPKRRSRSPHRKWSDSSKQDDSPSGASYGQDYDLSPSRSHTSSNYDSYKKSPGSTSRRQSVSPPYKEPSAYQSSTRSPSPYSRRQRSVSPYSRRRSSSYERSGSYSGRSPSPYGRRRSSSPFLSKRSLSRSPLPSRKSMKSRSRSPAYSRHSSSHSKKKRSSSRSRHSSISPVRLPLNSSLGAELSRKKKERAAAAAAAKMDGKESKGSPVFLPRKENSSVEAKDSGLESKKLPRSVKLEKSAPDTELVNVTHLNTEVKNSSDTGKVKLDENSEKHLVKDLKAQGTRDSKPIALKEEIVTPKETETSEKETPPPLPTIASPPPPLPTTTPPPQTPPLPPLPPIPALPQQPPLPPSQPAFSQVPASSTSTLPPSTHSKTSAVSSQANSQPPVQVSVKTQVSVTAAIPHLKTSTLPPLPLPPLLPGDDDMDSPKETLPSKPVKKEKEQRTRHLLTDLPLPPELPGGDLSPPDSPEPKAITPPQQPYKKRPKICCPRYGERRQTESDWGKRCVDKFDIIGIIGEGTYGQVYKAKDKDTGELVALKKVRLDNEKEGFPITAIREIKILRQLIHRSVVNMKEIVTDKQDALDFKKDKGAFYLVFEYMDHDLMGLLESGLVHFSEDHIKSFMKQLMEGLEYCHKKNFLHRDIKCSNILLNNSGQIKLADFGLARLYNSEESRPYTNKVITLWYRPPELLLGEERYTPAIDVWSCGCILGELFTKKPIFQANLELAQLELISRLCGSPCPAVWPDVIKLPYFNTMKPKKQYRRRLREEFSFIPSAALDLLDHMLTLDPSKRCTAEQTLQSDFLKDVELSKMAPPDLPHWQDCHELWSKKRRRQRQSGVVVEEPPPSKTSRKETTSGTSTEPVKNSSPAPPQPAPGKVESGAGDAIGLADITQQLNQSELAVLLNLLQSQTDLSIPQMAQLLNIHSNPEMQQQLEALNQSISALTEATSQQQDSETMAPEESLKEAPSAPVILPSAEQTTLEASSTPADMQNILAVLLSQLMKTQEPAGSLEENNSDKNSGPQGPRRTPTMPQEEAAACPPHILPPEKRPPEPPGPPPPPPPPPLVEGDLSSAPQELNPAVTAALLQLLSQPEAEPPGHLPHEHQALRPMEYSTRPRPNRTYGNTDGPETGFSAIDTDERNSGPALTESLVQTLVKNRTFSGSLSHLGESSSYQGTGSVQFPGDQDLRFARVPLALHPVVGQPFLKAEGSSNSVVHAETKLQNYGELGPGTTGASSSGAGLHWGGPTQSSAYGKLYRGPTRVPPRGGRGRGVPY
CDK12 complexed with Cyclin K, sequence (O75909 whole entry partner): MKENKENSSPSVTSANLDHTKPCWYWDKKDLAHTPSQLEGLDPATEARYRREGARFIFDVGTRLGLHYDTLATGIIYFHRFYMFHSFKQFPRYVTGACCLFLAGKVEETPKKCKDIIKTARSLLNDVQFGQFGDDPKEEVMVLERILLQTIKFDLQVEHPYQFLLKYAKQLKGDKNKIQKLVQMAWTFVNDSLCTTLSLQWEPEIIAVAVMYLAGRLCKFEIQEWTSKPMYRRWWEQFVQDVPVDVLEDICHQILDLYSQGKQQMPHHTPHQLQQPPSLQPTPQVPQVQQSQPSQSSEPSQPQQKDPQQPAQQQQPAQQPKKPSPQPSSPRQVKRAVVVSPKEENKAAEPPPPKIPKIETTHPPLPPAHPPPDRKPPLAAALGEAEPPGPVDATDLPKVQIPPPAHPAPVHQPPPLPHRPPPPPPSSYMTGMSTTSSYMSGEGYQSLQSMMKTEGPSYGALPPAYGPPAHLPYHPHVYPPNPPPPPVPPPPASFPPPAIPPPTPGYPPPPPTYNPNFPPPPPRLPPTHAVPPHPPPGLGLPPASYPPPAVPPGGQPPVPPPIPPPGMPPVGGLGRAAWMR

`N#Cc1cnc(N[C@@H]2CCC[C@H](n3cnc4cc(F)cc(Br)c43)C2)nc1-c1cnn(CC(F)F)c1` [Example 40, 2-(((1R,3S)-3-(7-Bromo-5-fluoro-1H-benzo[d]imidazol-1-yl)cyclohexyl)amino)-4-(1-(2,2-difluoroethyl)-1H-pyrazol-4-yl)pyrimidine-5-carbonitrile] and `Cc1cc(F)cc2ncn([C@H]3CCC[C@@H](Nc4ncc(C#N)c(-c5cnn(CC(F)F)c5)n4)C3)c12` [Example 54, 4-(1-(2,2-Difluoroethyl)-1H-pyrazol-4-yl)-2-(((1R,3S)-3-(5-fluoro-7-methyl-1H-benzo[d]imidazol-1-yl)cyclohexyl)amino)pyrimidine-5-carbonitrile] cannot be ordered by IC50: under 50 nM for the first, under 50 nM for the second.

`N#Cc1cnc(N[C@@H]2CCC[C@H](n3cnc4cccc(Br)c43)C2)nc1-c1cnn(CC(F)F)c1` [Example 41, 2-(((1R,3S)-3-(7-Bromo-1H-benzo[d]imidazol-1-yl)cyclohexyl)amino)-4-(1-(2,2-difluoroethyl)-1H-pyrazol-4-yl)pyrimidine-5-carbonitrile] and `N#Cc1ccc2ncn([C@H]3CCC[C@@H](Nc4ncc(C#N)c(-c5cnn(CC(F)F)c5)n4)C3)c2c1` [Example 43, 1-((1S,3R)-3-((5-Cyano-4-(1-(2,2-difluoroethyl)-1H-pyrazol-4-yl)pyrimidin-2-yl)amino)cyclohexyl)-1H-benzo[d]imidazole-6-carbonitrile] cannot be ordered by IC50: under 50 nM for the first, under 50 nM for the second.

`N#Cc1cnc(N[C@@H]2CCC[C@H](n3cnc4cnc(Cl)c(Br)c43)C2)nc1-c1cnn(CC(F)F)c1` [Example 42, 2-(((1R,3S)-3-(7-Bromo-6-chloro-1H-imidazo[4,5-c]pyridin-1-yl)cyclohexyl)amino)-4-(1-(2,2-difluoroethyl)-1H-pyrazol-4-yl)pyrimidine-5-carbonitrile] and `N#Cc1cnc(N[C@@H]2CCC[C@H](n3cnc4cncc(Cl)c43)C2)nc1-c1cnn(CC(F)F)c1` [Example 45, 2-(((1R,3S)-3-(7-Chloro-1H-imidazo[4,5-c]pyridin-1-yl)cyclohexyl)amino)-4-(1-(2,2-difluoroethyl)-1H-pyrazol-4-yl)pyrimidine-5-carbonitrile] cannot be ordered by IC50: under 50 nM for the first, under 50 nM for the second.

`N#Cc1cc2c(cn1)ncn2[C@H]1CCC[C@@H](Nc2ncc(C#N)c(-c3cnn(CC(F)F)c3)n2)C1` [Example 46, 1-((1S,3R)-3-((5-Cyano-4-(1-(2,2-difluoroethyl)-1H-pyrazol-4-yl)pyrimidin-2-yl)amino)cyclohexyl)-1H-imidazo[4,5-c]pyridine-6-carbonitrile] and `N#Cc1ccc2ncn([C@H]3CCC[C@@H](Nc4ncc(C#N)c(-c5cnn(CC(F)F)c5)n4)C3)c2n1` [Example 47, 3-((1S,3R)-3-((5-Cyano-4-(1-(2,2-difluoroethyl)-1H-pyrazol-4-yl)pyrimidin-2-yl)amino)cyclohexyl)-3H-imidazo[4,5-b]pyridine-5-carbonitrile] cannot be ordered by IC50: under 50 nM for the first, under 50 nM for the second.

`Cc1ncc(C#N)c2c1ncn2[C@H]1CCC[C@@H](Nc2ncc(C#N)c(-c3cnn(CC(F)F)c3)n2)C1` [Example 48, 1-((1S,3R)-3-((5-Cyano-4-(1-(2,2-difluoroethyl)-1H-pyrazol-4-yl)pyrimidin-2-yl)amino)cyclohexyl)-4-methyl-1H-imidazo[4,5-c]pyridine-7-carbonitrile] and `N#Cc1cnc(N[C@@H]2CCC[C@H](n3cnc4cc(F)cc(C#N)c43)C2)nc1-c1cnn(CC(F)F)c1` [Example 49, 1-((1S,3R)-3-((5-Cyano-4-(1-(2,2-difluoroethyl)-1H-pyrazol-4-yl)pyrimidin-2-yl)amino)cyclohexyl)-5-fluoro-1H-benzo[d]imidazole-7-carbonitrile] cannot be ordered by IC50: under 50 nM for the first, under 50 nM for the second.

`N#Cc1cc(C#N)c2c(c1)ncn2[C@H]1CCC[C@@H](Nc2ncc(C#N)c(-c3cnn(CC(F)F)c3)n2)C1` [Example 50, 1-((1S,3R)-3-((5-Cyano-4-(1-(2,2-difluoroethyl)-1H-pyrazol-4-yl)pyrimidin-2-yl)amino)cyclohexyl)-1H-benzo[d]imidazole-5,7-dicarbonitrile] and `Cc1cc(C#N)cc2ncn([C@H]3CCC[C@@H](Nc4ncc(C#N)c(-c5cnn(CC(F)F)c5)n4)C3)c12` [Example 55, 1-((1S,3R)-3-((5-Cyano-4-(1-(2,2-difluoroethyl)-1H-pyrazol-4-yl)pyrimidin-2-yl)amino)cyclohexyl)-7-methyl-1H-benzo[d]imidazole-5-carbonitrile] cannot be ordered by IC50: under 50 nM for the first, under 50 nM for the second.

First: N#Cc1cc(C(F)(F)F)cc2ncn([C@H]3CCC[C@@H](Nc4ncc(C(F)(F)F)c(-c5cnn(CC(F)F)c5)n4)C3)c12 [Example 51, 1-((1S,3R)-3-((4-(1-(2,2-Difluoroethyl)-1H-pyrazol-4-yl)-5-(trifluoromethyl)pyrimidin-2-yl)amino)cyclohexyl)-5-(trifluoromethyl)-1H-benzo[d]imidazole-7-carbonitrile]
Second: N#Cc1cncc2ncn([C@H]3CCC[C@@H](Nc4ncc(C(F)(F)F)c(-c5cnn(CC(F)F)c5)n4)C3)c12 [Example 52, 1-((1S,3R)-3-((4-(1-(2,2-Difluoroethyl)-1H-pyrazol-4-yl)-5-(trifluoromethyl)pyrimidin-2-yl)amino)cyclohexyl)-1H-imidazo[4,5-c]pyridine-7-carbonitrile]
The IC50 of the first is higher: 50 to 500 nM for the first, under 50 nM for the second.

`N#Cc1cc2ncn([C@H]3CCC[C@@H](Nc4ncc(C#N)c(-c5cnn(CC(F)F)c5)n4)C3)c2[n+]([O-])c1` [Example 53, 6-Cyano-3-((1S,3R)-3-((5-cyano-4-(1-(2,2-difluoroethyl)-1H-pyrazol-4-yl)pyrimidin-2-yl)amino)cyclohexyl)-3H-imidazo[4,5-b]pyridine 4-oxide] and `N#Cc1cnc2c(c1)ncn2[C@H]1CCC[C@@H](Nc2ncc(C#N)c(-c3cnn(CC(F)(F)F)c3)n2)C1` [Example 62, 3-((1S,3R)-3-((5-Cyano-4-(1-(2,2,2-trifluoroethyl)-1H-pyrazol-4-yl)pyrimidin-2-yl)amino)cyclohexyl)-3H-imidazo[4,5-b]pyridine-6-carbonitrile] cannot be ordered by IC50: under 50 nM for the first, under 50 nM for the second.

First: Cn1cc(-c2cnc(N[C@@H]3CCC[C@H](n4cnc5cc(C#N)cnc54)C3)nc2-c2cnn(CC(F)F)c2)cn1 [Example 56, 3-((1S,3R)-3-((4-(1-(2,2-Difluoroethyl)-1H-pyrazol-4-yl)-5-(1-methyl-1H-pyrazol-4-yl)pyrimidin-2-yl)amino)cyclohexyl)-3H-imidazo[4,5-b]pyridine-6-caronitrile]
Second: N#Cc1cnc2c(c1)ncn2[C@H]1CCC[C@@H](Nc2ncc(-c3cn[nH]c3)c(-c3cnn(CC(F)F)c3)n2)C1 [Example 57, 3-((1S,3R)-3-((4-(1-(2,2-Difluoroethyl)-1H-pyrazol-4-yl)-5-(1H-pyrazol-4-yl)pyrimidin-2-yl)amino)cyclohexyl)-3H-imidazo[4,5-b]pyridine-6-carbonitrile]
The IC50 of the first is higher: over 500 nM for the first, 50 to 500 nM for the second.

`CC(C)(O)Cn1cc(-c2nc(N[C@@H]3CCC[C@H](n4cnc5cc(C#N)cnc54)C3)ncc2C#N)cn1` [Example 58, 3-((1S,3R)-3-((5-Cyano-4-(1-(2-hydroxy-2-methylpropyl)-1H-pyrazol-4-yl)pyrimidin-2-yl)amino)cyclohexyl)-3H-imidazo[4,5-b]pyridine-6-carbonitrile] and `N#Cc1cnc2c(c1)ncn2[C@H]1CCC[C@@H](Nc2ncc(C#N)c(-c3cnn(C4CNC4)c3)n2)C1` [Example 59, 3-((1S,3R)-3-((4-(1-(Azetidin-3-yl)-1H-pyrazol-4-yl)-5-cyanopyrimidin-2-yl)amino)cyclohexyl)-3H-imidazo[4,5-b]pyridine-6-carbonitrile] cannot be ordered by IC50: under 50 nM for the first, under 50 nM for the second.

First: N#Cc1cnc2c(c1)ncn2[C@H]1CCC[C@@H](Nc2ncc(C#N)c(-c3cnn(CCN4CCOCC4)c3)n2)C1 [Example 60, 3-((1S,3R)-3-((5-Cyano-4-(1-(2-morpholinoethyl)-1H-pyrazol-4-yl)pyrimidin-2-yl)amino)cyclohexyl)-3H-imidazo[4,5-b]pyridine-6-carbonitrile]
Second: N#Cc1cnc2c(c1)ncn2[C@H]1CCC[C@@H](Nc2ncc(C#N)c(-c3cnn(C4CCOCC4)c3)n2)C1 [Example 63, 3-((1S,3R)-3-((5-Cyano-4-(1-(tetrahydro-2H-pyran-4-yl)-1H-pyrazol-4-yl)pyrimidin-2-yl)amino)cyclohexyl)-3H-imidazo[4,5-b]pyridine-6-carbonitrile]
The IC50 of the first is higher: 50 to 500 nM for the first, under 50 nM for the second.

For `Cn1cnc(-c2nc(N[C@@H]3CCC[C@H](n4cnc5cc(C#N)cnc54)C3)ncc2C#N)c1` [Example 61, 3-((1S,3R)-3-((5-Cyano-4-(1-methyl-1H-imidazol-4-yl)pyrimidin-2-yl)amino)cyclohexyl)-3H-imidazo[4,5-b]pyridine-6-carbonitrile], the IC50 was under 50 nM.
